In the NIST ThermoML archive (doi:10.1016/j.tca.2016.04.013):

How the values were obtained:
[1] = molar heat capacity at constant pressure; conditions: 101.33 kPa, Crystal, relaxation calorimetry
[2] = 101.33 kPa, Crystal, relaxation calorimetry

Oc1ncc(Cl)c(O)n1 [5-chloro-2,4-pyrimidinedione]
Conditions	molar entropy, [2] [J/K/mol]	molar heat capacity at constant pressure, [1] [J/K/mol]
0.5 K	0.000378	0.000485
1 K	0.00108	0.00194
2 K	0.00473	0.0116
2.04 K	–	0.0119
2.26 K	–	0.0165
2.51 K	–	0.0224
2.79 K	–	0.0297
3 K	0.0135	0.0367
3.1 K	–	0.0407
3.44 K	–	0.0549
3.82 K	–	0.0739
4 K	0.0301	0.085
4.24 K	–	0.101
4.71 K	–	0.138
5 K	0.0569	0.164
5.24 K	–	0.188
5.81 K	–	0.257
6 K	0.0966	0.282
6.44 K	–	0.35
7 K	0.152	0.446
7.17 K	–	0.479
7.91 K	–	0.649
8 K	0.225	0.665
8.78 K	–	0.878
9 K	0.319	0.945
9.74 K	–	1.19
10 K	0.435	1.28
10.81 K	–	1.59
11.99 K	–	2.14
13.31 K	–	2.79
14.74 K	–	3.64
15 K	1.39	3.81
16.35 K	–	4.68
18.13 K	–	6.06
20 K	2.96	7.44
20.12 K	–	7.49
22.32 K	–	9.36
24.77 K	–	11.49
25 K	5.07	11.69
27.49 K	–	13.93
30 K	7.59	16.14
30.5 K	–	16.6
33.86 K	–	19.52
35 K	10.42	20.57
37.57 K	–	22.81
40 K	13.44	24.87
41.69 K	–	26.3
45 K	16.61	28.97
46.26 K	–	29.88
50 K	19.87	32.81
51.34 K	–	34.08
56.96 K	–	37.64
60 K	26.48	39.81
63.23 K	–	41.77
70 K	33.09	45.98
70.19 K	–	45.99
77.89 K	–	50.5
80 K	39.6	51.52
86.44 K	–	54.98
90 K	45.96	56.6
95.96 K	–	59.39
100 K	52.17	61.33
106.02 K	–	64.02
110 K	58.23	65.83
116.12 K	–	68.52
120 K	64.15	70.16
126.18 K	–	72.83
130 K	69.93	74.35
136.3 K	–	76.98
140 K	75.59	78.45
146.41 K	–	80.91
150 K	81.14	82.47
156.52 K	–	84.91
160 K	86.59	86.42
166.6 K	–	89.11
170 K	91.94	90.33
176.69 K	–	92.91
180 K	97.22	94.19
186.77 K	–	96.98
190 K	102.41	98.02
196.85 K	–	100.43
200 K	107.53	101.81
206.94 K	–	104.46
210 K	112.59	105.58
217.03 K	–	107.97
220 K	117.59	109.32
227.26 K	–	112.17
230 K	122.53	113.04
234.67 K	–	114.85
240 K	127.42	116.74
244.74 K	–	118.78
250 K	132.26	120.42
254.84 K	–	122.35
260 K	137.06	124.08
264.91 K	–	125.73
270 K	141.81	127.73
273.15 K	143.3	128.88
275 K	–	129.5
280 K	146.52	131.37
285.08 K	–	132.72
290 K	151.19	135
295.37 K	–	136.73
298.15 K	154.97	137.95
300 K	155.83	138.62
302.71 K	–	140.1
